Values of other authors, collected in US20070059297A1, “Methods and compositions for improving visual acuity” (Nestec, S.A., priority 2005, published 2007).

System: rat retina neuronal cells
Conditions: in vitro incubation

- DHA content of cells incubated with DHA versus cells incubated with other fatty acids: four- to six-fold more DHA
Compound: CC/C=C\C/C=C\C/C=C\C/C=C\C/C=C\C/C=C\CCC(=O)O [DHA, docosahexaenoic acid]
